What was measured:
[1] = tested on: hippocampal in vitro model; settings: Salter and Kalia, 2004, Sanna et al., 2000; cited from earlier work
[2] = tested on: rat kainate model of epilepsy; assay: Saracatinib post-treatment in the rat kainate model of epilepsy, 4 months video-EEG study; type: in vivo, rats; settings: four months monitoring
Description: Fifteen rats (n=8 for control and 7 for SAR) were studied over the course of four months. Treatments and methods used in Example 12 were followed for this Example except for the extended time and the SAR/vehicle was administered 2 h after stopping the seizures (SE) with diazepam. The SAR was given at 25 mg/kg, oral twice daily for three days followed by daily for next four days. The drug was NOT administered after 7-day time point.

[3] = LC-MS of saracatinib in hippocampal tissue (blood brain barrier crossing); type: in vivo, C57BL/6J mice
Description: For the LC-MS the optimum dose of saracatinib for our experiment was based on the published literature (Green et al., 2009; Hannon et al., 2010; Liu et al., 2012; Yang et al., 2010). […] The mice hippocampal tissues were homogenized in ˜0.2 mL 1:1 methanol:water using bullet blender. An additional 125 μL HPLC grade water was added to the homogenized samples. This was followed by three similar successive extractions with 375 μL 3:1 acetonitrile:water. The homogenate was sonicated for 10 min in a sonication water bath. The sample was pelleted by centrifugation at 13,000 g for 7 min and the supernatant was collected after each extraction and the samples were pooled. […]
The LC-MS analysis for saracatinib was conducted using an Agilent Technologies 1290 Infinity Binary Pump UHPLC system coupled to an Agilent Technologies 6540 UHD Accurate-Mass Q-TOF mass spectrometer in high resolution mode ([…]) and scanning m/z 100-1700. […] Saracatinib detection is represented by extracted ion chromatogram (EIC) using a 10 ppm extraction window and was analyzed (FIG. 1E) using Agilent Mass Hunter Qualitative Analysis B.07.00 software. The X-axis on the EIC represents retention time and the Y-axis represents the abundance of ions detected. Saracatinib concentrations were observed as the area of the EIC peaks and was calculated based on the linear curve of the observed peak areas of standards. […]

rat kainate model of TLE = assay: Saracatinib post-treatment in the rat kainate model of TLE, 28 days continuous video-EEG; type: in vivo, Sprague Dawley rats; settings: for rats that did not develop epilepsy (of seven treated): 25 mg/kg oral from 2 h post-diazepam, twice daily 3 days then daily 4 days
Description: Rats were used in the following example. The rats were treated as per the materials and methods of Examples 2-10 except for the following. Fourteen rats were used and implanted with telemetry device 10 days prior to the induction of SE, with RLD of kainate, as described previously (Puttachary et al., 2016b). The telemetry device used was CTA-F40 PhysioTel™ telemetry device (Data Science International, Minneapolis, USA) for video-EEG recording.
Disabling the Fyn kinase function, either by pretreatment with saracatinib or fyn KO, prior to SE induction impacts the initial severity of SE and thus compromises the epileptogenic events. Therefore, we tested the effect of Fyn kinase inhibition with the saracatinib on epileptogenesis after the induction of SE in the rat kainate model of TLE. To mimic human TLE from translational view point, the rat kainate model is more suitable in terms of progressive nature of the disease since the frequency of spontaneous CS consistently increases over time in rats in contrast to the mouse kainate model (Puttachary et al., 2015b and 2016b). Therefore, we tested the saracatinib in the rat kainate model after terminating the behavioral SE with diazepam. The saracatinib (25 mg/kg, oral) was administered at 2 h post-diazepam and repeated twice daily for first three days followed by a single dose daily for the next four days during the first week of post-SE period. The treatment regimen was chosen based on increase in Fyn and PKCδ levels during the first week of post-SE in the mouse model.

[4] = tested on: kainate-induced SE in C57BL/6J mice; assay: Saracatinib pretreatment 4 h before kainate-induced status epilepticus (behavioral seizure scoring, modified Racine scale); type: in vivo; settings: for mortality during SE / latency to the onset of first CS: saracatinib 25 mg/kg oral 4 h prior to SHD kainate 25 mg/kg i.p.; for mortality during SE: about 20% in vehicle group
Description: We tested Fyn knockout mice (fyn^−/−), bred on C57BL/6J hybrid background mouse (fyn^+/+), and in wildtype C57BL/6J mice treated with the fyn kinase inhibitor, Saracatinib ([…], 25 mg/kg, oral, single dose) 4 h prior to the induction of SE with KA (5 mg/kg, i.p. at 30 min intervals or as a single high dose of 25 mg/kg). Two hours after the established SE, the behavioral SE was terminated with diazepam (10 mg/kg, i.p.). The animals were euthanized with pentobarbitone (100 mg/kg, i.p.) at 4 h, 24 h and 7d (for IHC & WB) and 4 weeks (video-EEG group) post-SE. The brain, serum, and cerebrospinal fluid (CSF) were collected for various analyses. […] We examined the time-dependent activation of fyn in microglial cells and initiation of neuro-inflammatory and neurodegenerative mechanisms in the hippocampus at 4 h, 24 h and 7 day time points post-SE. We also performed electroencephalographic (EEG) analysis to determine the spike rate and SRS frequency.
Thirty C57BL/6J mice were used for the saracatinib experiment. In this experiment, 15 mice were treated with saracatinib (25 mg/kg, oral gavage as a single dose) at 4 h prior to a single high dose (SHD) of kainate (25 mg/kg, i. p), while the remaining 15 mice were given the vehicle [0.5% hydroxypropyl methylcellulose in 0.1% tween 80] 4 h prior to kainate.
All animals administered with kainate were subjected to video recording. The seizures were staged and the SE was scored by direct observation of animals during the 2 h SE and exact duration of each stage of seizure was calculated. The video recordings were used for secondary analysis and for independent verification of seizures by two different personnel who were not involved in direct scoring during the experiments. The personnel who did the behavioral analysis were blind to the experimental groups. The behavioral seizures were scored based on modified Racine scale from stage 1 to 5 as described previously (Beamer et al., 2012; Puttachary et al., 2015b; Racine, 1972; Tse et al., 2014). Briefly, the staging was as follows: stage 1, absence-like immobility; stage-2, hunching with facial or manual automatisms evident from brisk movement of vibrissae and repeated grooming of the face; stage 3, rearing with forelimb clonus and facial or manual automatisms; stage 4, repeated rearing with continuous forelimb clonus and falling; and stage-5, generalized tonic clonic convulsions with lateral recumbence or jumping and/or wild running followed by generalized convulsions. Stage 1 and stage 2 were categorized as non-convulsive seizures (NCS) and stage ≥3 as convulsive seizures (CS) (Beamer et al., 2012; Puttachary et al., 2015b; Tse et al., 2014). The latency to the onset of CS and the duration of seizures were analyzed for each animal within a group as described previously (Puttachary et al., 2015b; Tse et al., 2014). The duration of CS is the total time spent by an animal in stage ≥3 during the 2 h of established SE until the diazepam was administered. Since a very few animals reached stage 5 in the saracatinib pretreated group and in the fyn^−/− mice, we considered stage ≥3 as the starting point for 2 h established SE. The data were analyzed and the severity of seizures, duration of CS, latency to CS onset, and mortality rate were compared between the groups.
In all kainate-treated animals, the behavior seizures were terminated with diazepam (10 mg/kg, i.p.) at 2 h after the first onset of convulsive seizure. The 2 h duration between the onset of convulsive seizure and the diazepam treatment was considered as 2 h established SE. During this period, all wildtype control mice had continuous convulsive seizures for >30 min. All kainate-treated animals received 1 mL of Ringer's lactate solution (s.c.) twice a day for three days to enable them to recover from dehydration and the lost bodyweight due to SE.

[5] = saracatinib 25 mg/kg oral single dose 4 h prior to kainate, vs vehicle, 2 h established SE

Compound: CC(C)(C)n1nc(-c2ccc(Cl)cc2)c2c(N)ncnc21 [PP2]
- frequency of epileptiform discharges [1]: reduces frequency of epileptiform discharges

Compound: CN1CCN(CCOc2cc(OC3CCOCC3)c3c(Nc4c(Cl)ccc5c4OCO5)ncnc3c2)CC1 [saracatinib, N-(5-chloro-1,3-benzodioxol-4-yl)-7-[2-(4-methylpiperazin-1-yl)ethoxy]-5-(oxan-4-yloxy)quinazolin-4-amine]
- rats in which development of epilepsy was completely prevented (of seven) ([2]; 25 mg/kg oral twice daily 3 days then daily 4 days): four out of seven
- animals not responding [2]: one animal did not respond
- seizures in the other animals [2]: significantly reduced seizures
- crossing of the blood brain barrier (BBB) ([3]; LC-MS of hippocampus after 25 mg/kg oral): crossed the BBB
- persistence in hippocampus, 8 h compared to 28 h ([3]; LC-MS, FIG. 1F): persisted in the hippocampus at higher levels at 8 h post-SE when compared to 28 h post-administration
- rats that did not develop epilepsy (of seven treated) (rat kainate model of TLE; 28 d post-SE): four out of seven
- rats that did not develop epilepsy (of seven treated) (rat kainate model of TLE; 28 d post-SE, listed as SAR): four
- epileptiform spike counts / spiking frequency vs vehicle (rat kainate model of TLE; 28 d post-SE, video-EEG): significantly reduced
- number of spontaneous CS vs vehicle (rat kainate model of TLE; 28 d post-SE, video-EEG): significantly reduced
- number of spontaneous CS vs vehicle (rat kainate model of TLE; 28 d post-SE, video-EEG, listed as SAR): significant reduction
- initial SE severity vs vehicle group (rat kainate model of TLE; before treatment (post-SE dosing)): no significant difference
- rats not responding to treatment (rat kainate model of TLE; of seven treated rats): one rat did not respond
- number of spontaneous CS in a month (two rats) (rat kainate model of TLE; two of seven treated rats, >24 episodes in vehicle group): < 10
- mice that reached stage 5 seizure ([4]; SHD kainate 25 mg/kg, 67% in vehicle group): 7%
- mortality during SE [4]: no mortality
- mortality during SE ([4]; listed as SAR): reducing seizure severity and morality rate
- latency to the onset of first CS ([4]; vs vehicle): increased latency
- latency to the onset of first CS ([4]; vs vehicle, listed as SAR): increasing the latency of seizure onset
- duration of convulsive seizures (CS) [4, 5]: significant reduction
- seizure severity [4, 5]: significant reduction
- seizure severity ([4]; saracatinib 25 mg/kg oral single dose 4 h prior to kainate, vs vehicle, 2 h established SE, listed as SAR): reducing seizure severity

Source: patent publication US11000524B2, “Tyrosine kinase inhibition as a treatment for epilepsy” (Iowa State University Research Foundation, Inc., priority 2016, dated 2021)
